Patent US11981641B1, “4,5-bis(4-bromophenyl)-1-hexyl-2-(3,4-dimethoxyphenyl)-1H-imidazole as an antimicrobial compound” (KING FAISAL UNIVERSITY, priority 2023, dated 2024)

Key:
Assay type in all cases: cell-based
Conditions in all cases: after 10, 20, 40 and 60 minutes at all dilutions 1:100, 1:200, 1:400, 1:800
[1] = system: Pseudomonas aeruginosa; experiment: antimicrobial screening by agar dilution, Ps. aeruginosa
Method: (§1) The antimicrobial properties of the 4,5-bis(4-bromophenyl)-1-hexyl-2-(3,4-dimethoxyphenyl)-1H-imidazole was studied by the method of agar dilution. Test solutions of each compound was prepared in concentration of 1% using dimethylformamide as a solvent then they were diluted in physiological solution to obtain the final experimental dilutions 1: 100, 1:200, 1:400, 1:800. The effect of these substances were compared with furacillin in a controlled study. The testing microbes used were gram positive bacteria Staphylococcus aureus, gram negative bacteria Pseudomonas aeruginosa and Escherichia coli and Candida albicans fungi were taken. The experiments used for this survey were meat-pentonlu agar (EPA) for cultivation of bacteria and Saburo environment for fungi. Each experiment used 1 ml of test solution on each plate 500 min. Add 2 drops of emulsified with microbes feel. All experimental samples were taken from the agar after 10, 20, 40, 60 minutes in the environment on the basis of Patrk planted. Bacteria were cultivated at a temperature of 37° C. for 1 day and the mushroom was kept in a thermostat for […] at a temperature of 28° C. Then results were checked.

[2] = system: Escherichia coli; experiment: antimicrobial screening by agar dilution, E. coli
Method: as §1

[3] = system: Candida albicans; experiment: antimicrobial screening by agar dilution, Candida albicans
Method: as §1

[4] = system: Staphylococcus aureus; experiment: antimicrobial screening by agar dilution, St. aureus
Method: as §1

Measured: inhibition activity

CCCCCCn1c(-c2ccc(OC)c(OC)c2)nc(-c2ccc(Br)cc2)c1-c1ccc(Br)cc1 [4,5-bis(4-bromophenyl)-1-hexyl-2-(3,4-dimethoxyphenyl)-1H-imidazole]
highest inhibition activity: [1] | [2] | [3] | [4]
